Consider 20 molecules from article PMC8360007, “Stereoselective Access to Antimelanoma Agents by Hybridization and Dimerization of Dihydroartemisinin and Artesunic acid” (Chemmedchem, 2021).

Like-named read-outs stand apart in the source and are kept apart here.

In data set [1] the test system is metastatic melanoma cancer cell line RPMI7951. On the set-up: method as in PMID 31956771. The settings on record: cited from earlier work.
The subject of data set [2] is normal human primary fibroblast cell line (C3PV). On the set-up: method as in PMID 31956771. To be noted: cytotoxicity data from ref. 12; read-out: CC50±SD C3PV; cited from earlier work.
Data set [3] can be described thus: MTT cell viability (cytotoxicity) on normal human primary fibroblast C3PV. The class given is cell-based. The method, then: (§1) The anticancer‐activity of DHA and ART hybrids 7‐β, 12‐β, 13‐α, 14‐α, 15‐α, and 16‐α, and of DHA and ART dimers 17‐α,α, 18‐α,α, 19‐β,β, 20‐α,α, 21‐α,α and 22‐α,α, was evaluated by the cell survival MTT assay on metastatic melanoma cancer cell line RPMI7951. Artemisinin 1, DHA 2, ART 3, hybrids 5–7, dimer 8, and commercially available drug paclitaxel (Taxol) were used as reference. In addition, data were compared with experiments performed on normal human primary fibroblast cell line (C3PV). Table 1 reports the IC50 (half‐maximal inhibitory concentration) and CC50 (half‐maximal cytotoxic concentration) values of the tested compounds.
(§2) The primary human fibroblast C3PV cell line was treated according to Botta et al.[27] Metastatic melanoma cell line (RPMI7951) was grown in Eagle's Minimum Essential Medium (EMEM) containing 15 % and 10 % FBS respectively, in addition to penicillin (100 U/ml) and streptomycin (1 mg/ml). The cell lines were maintained at 37 °C in a humidified atmosphere (95 %) in the presence of 5.0 % CO2. Prostate cancer (PC3) and breast cancer (MDA‐MB‐231) cell lines were raised in DMEM/F12 and RMPI1640 medium, respectively. To the medium was added 10 % FBS, 1 mM Glutammine and 40 μg/ml of Gentamicin. All cell lines were mantained at 37 °C in a humidified atmosphere (95 %) in the presence of 5.0 of CO2.
(§3) To study the effect of artemisinin and its derivatives on cell viability C3PV, RPMI7951, PC3, MDA‐MB‐231 cell lines were seeded in 96‐well plates (6000 cells/well in 100 μl medium) and incubated overnight to allow cell adherence. After, the medium was replaced with fresh medium containing the appropriate dose of compound. […] The analyses of cell viability were done at the end of treatment. The assays were performed in quadruplicate for both treatments.
(§4) The CC50 and IC50 values were determined by non‐linear regression using the program graphpad prism 6.
(§5) Cell viability was evaluated using MTT cell proliferation assay. Briefly, after incubation for 3 h at 37 °C with MTT (0.5 mg/ml) the supernatant was replaced with 100 μl of a lysis solution containing 10 % SDS, 0.6 % Acetic acid in DMSO to dissolve the formazan crystals. Optical density measurements were performed with a scanning spectrophotometer DTX880 Multimode Detector (Beckman Coulter) using a 630 nm (background) and a 570 nm filter.

Data set [4] has as its system metastatic melanoma cancer cell line RPMI7951. As to the kind of experiment: cell survival MTT assay on metastatic melanoma cancer cell line RPMI7951. The data set is classed as cell-based. The settings on record: Homo sapiens, RPMI-7951, read-out: IC50±SD RPMI7951. The procedure:
as §1, §2
To study the effect of artemisinin and its derivatives on cell viability C3PV, RPMI7951, PC3, MDA‐MB‐231 cell lines were seeded in 96‐well plates (6000 cells/well in 100 μl medium) and incubated overnight to allow cell adherence. After, the medium was replaced with fresh medium containing the appropriate dose of compound. Artemisinin and its derivatives were used in a range of […] for 24 h. The analyses of cell viability were done at the end of treatment. […]
as §4, §5
(Formazan colour is commonly taken as a measure of viable cells.)

Data set [5] in a line: MTT cell viability (cytotoxicity) on normal human primary fibroblast C3PV. The class given is cell-based. The settings on record: C3PV normal primary fibroblast cells, 24 h treatment, triplicate, read-out: CC50±SD C3PV.
Data set [6] deals with human breast (MDA‐MB‐231) cancer cell line. As to the kind of experiment: MTT cell viability on breast cancer MDA‐MB‐231 cell line. The data set is classed as cell-based. To be noted: triplicate, read-out: IC50±SD MDA‐MB‐231. The procedure:
(§6) The effect of dimers 20–22‐α,α was further evaluated against other tumour types, such as human prostate and breast cancers in PC3 and MDA‐MB‐231 cell lines, respectively (Table 2).
as §2, §3, §5

In data set [7] the test system is human prostate (PC3) cancer cell line. As to the kind of experiment: MTT cell viability on prostate cancer PC3 cell line. The class given is cell-based. The settings on record: PC-3, triplicate, read-out: IC50±SD PC3. The procedure:
as §6, §2, §3, §5

Data set [8] in a line: stability in assay medium by HPLC. The class given is physicochemical. The settings on record: 24 and 48 hours, 25 °C, pH=7, in comparison with artesunic acid 3.
Where [9] appears, read: antimelanoma data from ref. 12, read-out: IC50±SD RPMI7951.
The mark [10] stands for this setting: MTT, 24 h treatment, triplicate.

With `CC1CCC2C(C)C(OC(=O)CCC(=O)OCCc3ccc(OC(=O)CCC(=O)OC4OC5OC6(C)CCC7C(C)CCC(C4C)C57OO6)cc3)OC3OC4(C)CCC1C32OO4` (stereo not drawn) [Compound 8], the 50% inhibitory concentration (IC50) in data set [1] (setting [9]) is 490 ± 50 nM; in data set [1] (introduction, earlier library, read-out: IC50 against RPMI‐7951 cell line), 1370 ± 130 nM. Further, the CC50 in data set [2] was 6100 ± 3740 nM.

For `C[C@H]1[C@H](OC(=O)CCC(=O)Oc2ccc(CO)cc2)O[C@@H]2O[C@@]3(C)CC[C@H]4[C@H](C)CC[C@@H]1[C@@]24OO3` [15‐α], the CC50 at 24 h in data set [3] is 55200 ± 7330 nM. Also, in data set [4] (setting [10]), the IC50 was found to be 2500 ± 50 nM.

Regarding `C[C@@H]1CC[C@H]2[C@@H](C)C(OC(=O)CCC(=O)OCCc3ccc(O)cc3)O[C@@H]3O[C@@]4(C)CC[C@@H]1[C@]32OO4` (stereo partly drawn) [Compound 6], the IC50 in data set [1] (setting [9]) was 8340 ± 3060 nM. In addition, in data set [2], the CC50 is above 300000 nM.

In data set [3], `CC(=O)O[C@H]1C(=O)[C@@]2(C)[C@H]([C@H](OC(=O)c3ccccc3)[C@]3(O)C[C@H](OC(=O)[C@H](O)[C@@H](NC(=O)c4ccccc4)c4ccccc4)C(C)=C1C3(C)C)[C@]1(OC(C)=O)CO[C@@H]1C[C@@H]2O` [Paclitaxel, paclitaxel, reference compound] returned a CC50 at 24 h of 78900 ± 790 nM. Besides, the 50% inhibitory concentration (IC50) in data set [4] (setting [10]) was found to be 13 nM.

As to `C[C@H]1[C@H](OC(=O)c2ccccc2C(=O)O[C@@H]2O[C@@H]3O[C@@]4(C)CC[C@H]5[C@H](C)CC[C@@H]([C@H]2C)[C@@]35OO4)O[C@@H]2O[C@@]3(C)CC[C@H]4[C@H](C)CC[C@@H]1[C@@]24OO3` [18‐α,α], in data set [3], the cytotoxic concentration (CC50) at 24 h is 8000 ± 100 nM. Besides, the half-maximal inhibitory concentration (IC50) in data set [4] (setting [10]) was 10800 ± 1600 nM.

For the molecule `C[C@H]1[C@H](OC(=O)CCC(=O)O)O[C@@H]2O[C@@]3(C)CC[C@H]4[C@H](C)CC[C@@H]1[C@@]24OO3` [Compound 3, artesunic acid], the half-maximal cytotoxic concentration (CC50) at 24 h in data set [5] came to 1680 ± 440 nM. For the same molecule, in data set [4] (setting [10]), the IC50 amounted to 1080 ± 560 nM.

For the molecule `COC(=O)C(Cc1ccc(O)cc1)NC(=O)CCC(=O)O[C@@H]1O[C@@H]2O[C@@]3(C)CC[C@H]4[C@H](C)CC[C@@H]([C@H]1C)[C@@]24OO3` (stereo partly drawn) [14‐α], in data set [3], the CC50 at 24 h was 6380 ± 1500 nM. For the same molecule, the IC50 in data set [4] (setting [10]) turned out to be 1300 ± 70 nM.

Consider `C[C@H]1[C@H](OC(=O)c2ccccc2C(=O)O)O[C@@H]2O[C@@]3(C)CC[C@H]4[C@H](C)CC[C@@H]1[C@@]24OO3` [16‐α], for which the CC50 at 24 h in data set [3] was determined as 8140 ± 850 nM. In data set [4] (setting [10]), the IC50 worked out at 4600 ± 30 nM.

As to `C[C@H]1[C@H](OC(=O)CCC(=O)NCCc2ccc(O)cc2)O[C@@H]2O[C@@]3(C)CC[C@H]4[C@H](C)CC[C@@H]1[C@@]24OO3` [13‐α], in data set [3], the midpoint of cytotoxicity, the CC50 at 24 h, lay at 3390 ± 50 nM. Also, the concentration for half-maximal inhibition (IC50) in data set [4] (setting [10]) turned out to be 1700 ± 30 nM.

Consider `C[C@@H]1CC[C@H]2[C@@H](C)C(OC(=O)CCC(=O)Oc3ccc(CCO)cc3)O[C@@H]3O[C@@]4(C)CC[C@@H]1[C@]32OO4` (stereo partly drawn) [Compound 7], for which the IC50 in data set [1] (setting [9]) is 90 ± 30 nM. Besides, the CC50 in data set [2] is 132000 ± 12600 nM.

The molecule `C[C@H]1[C@@H](O)O[C@@H]2O[C@@]3(C)CC[C@H]4[C@H](C)CC[C@@H]1[C@@]24OO3` [Compound 2, dihydroartemisinin] registered a CC50 at 24 h in data set [3] of 680 ± 190 nM. Moreover, in data set [4] (setting [10]), the IC50 was 910 ± 450 nM.

`C[C@H]1[C@H](OC(=O)CCC(=O)O[C@@H]2O[C@@H]3O[C@@]4(C)CC[C@H]5[C@H](C)CC[C@@H]([C@H]2C)[C@@]35OO4)O[C@@H]2O[C@@]3(C)CC[C@H]4[C@H](C)CC[C@@H]1[C@@]24OO3` [17‐α,α]: the CC50 at 24 h in data set [5] amounted to 250 ± 30 nM. The concentration for half-maximal inhibition (IC50) in data set [4] (setting [10]) turned out to be 70 ± 10 nM.

In data set [3], `CC1CCC2C(C)C(OC(=O)CCC(=O)NCCc3ccc(OC(=O)CCC(=O)OC4OC5OC6(C)CCC7C(C)CCC(C4C)C57OO6)cc3)OC3OC4(C)CCC1C32OO4` (stereo not drawn) [20‐α,α] returned a CC50 at 24 h of 228000 ± 1500 nM. Moreover, the IC50 is 2450 ± 50 nM in data set [4] (setting [10]), 2450 ± 50 nM in data set [4] (in absence of DFO), 1300 ± 850 nM in data set [6] and 2300 ± 350 nM in data set [7].

Consider `CC1CCC2C(C)C(OCCc3ccc(O)cc3)OC3OC4(C)CCC1C32OO4` (stereo not drawn) [12‐β], for which half-maximal cytotoxicity in data set [3] (CC50 at 24 h) was put at 38200 ± 2560 nM. For the same molecule, the IC50 in data set [4] (setting [10]) was 400 ± 30 nM.

As to `C[C@@H]1CC[C@H]2[C@@H](C)C(=O)O[C@@H]3O[C@@]4(C)CC[C@@H]1[C@]32OO4` [Compound 1, artemisinin], the cytotoxic concentration (CC50) at 24 h in data set [5] was above 300000 nM. Also, in data set [4] (setting [10]), the IC50 was found to be 3620 ± 990 nM.

In data set [3], `C[C@H]1[C@@H](OCCCCO[C@H]2O[C@@H]3O[C@@]4(C)CC[C@H]5[C@H](C)CC[C@@H]([C@H]2C)[C@@]35OO4)O[C@@H]2O[C@@]3(C)CC[C@H]4[C@H](C)CC[C@@H]1[C@@]24OO3` [19‐β,β] displayed a CC50 at 24 h of 5700 ± 790 nM. Further, the 50% inhibitory concentration (IC50) in data set [4] (setting [10]) came out at 3600 ± 950 nM.

`C[C@@H]1CC[C@H]2[C@@H](C)C(OCCc3ccc(O)cc3)O[C@@H]3O[C@@]4(C)CC[C@@H]1[C@]32OO4` (stereo partly drawn) [Compound 5]: the IC50 in data set [1] (setting [9]) was 330 ± 80 nM. In data set [2], the cytotoxic concentration (CC50) was 1760 ± 310 nM.

Take `CC1CCC2C(C)C(Oc3ccc(CCO)cc3)OC3OC4(C)CCC1C32OO4` (stereo not drawn) [7‐β]: in data set [3], the midpoint of cytotoxicity, the CC50 at 24 h, lay at 1140 ± 450 nM. In data set [4] (setting [10]), the half-maximal inhibitory concentration (IC50) is 200 ± 10 nM.

For the molecule `CC1CCC2C(C)C(OC(=O)CCC(=O)OCc3ccc(OC(=O)CCC(=O)OC4OC5OC6(C)CCC7C(C)CCC(C4C)C57OO6)cc3)OC3OC4(C)CCC1C32OO4` (stereo not drawn) [Compound 22‐α,α], in data set [8], the “stability after exposition to assay medium (HPLC)” value is listed as “good stability”. This molecule showed a CC50 at 24 h in data set [3] above 300000 nM. The IC50 in data set [4] (setting [10]) was 50 ± 20 nM; in data set [4] (in absence of DFO), 50 ± 20 nM; in data set [6], 2400 ± 950 nM; in data set [7], 3100 ± 190 nM.

In data set [3], `COC(=O)C(Cc1ccc(OC(=O)CCC(=O)OC2OC3OC4(C)CCC5C(C)CCC(C2C)C35OO4)cc1)NC(=O)CCC(=O)OC1OC2OC3(C)CCC4C(C)CCC(C1C)C24OO3` (stereo not drawn) [21‐α,α] gave a half-maximal cytotoxic concentration (CC50) at 24 h above 300000 nM. Moreover, the IC50 is 1760 ± 30 nM in data set [4] (setting [10]), 1760 ± 30 nM in data set [4] (in absence of DFO), 3080 ± 850 nM in data set [6] and 3040 ± 340 nM in data set [7].

The term IC50 denotes the concentration needed to halve the response being measured. Broadly, the CC50 is the concentration at which the toxic effect on the cells reaches its halfway point.
